Values of other authors in US20090202995A1, “MOLECULAR CARDIOTOXICOLOGY MODELING” (priority 2005, published 2009).
Where two headings read alike, the source gives them in different places.

How the values were obtained:
[1] = test system: heart tissue
[2] = test system: heart tissue; remark: listed apart in the source
[3] = test system: heart tissue; remark: listed apart in the source
[4] = test system: heart tissue; details: known designation used to train the model, at the dose, time and route of Table 3
[5] = test system: heart tissue; details: known designation used to train the model, at the dose, time and route of Table 3; remark: listed apart in the source
[6] = test system: heart tissue; details: known designation used to train the model, at the dose, time and route of Table 3; remark: listed apart in the source
[7] = known designation used to train the model, at the dose, time and route of Table 3
[8] = known tox (1) / non-tox (−1) designation used to train the model, at the dose, time and route of Table 3

| SMILES | Arrhythmia ([1]; rat, in vivo) | General ([2]; rat, in vivo) | Myocardial Necrosis ([3]; rat, in vivo) | Vasculature Agent [4] | Arrhythmia [1, 7] | General [2, 8] | Heart Failure [5] | Myocardial Necrosis [3, 7] | Andrenergic Agonist [6] |
| --- | --- | --- | --- | --- | --- | --- | --- | --- | --- |
| C[C@H]1C(=O)O[C@@H]2CCN3CC=C(COC(=O)[C@](C)(O)[C@]1(C)O)[C@H]23 [Monocrotaline] | −1 | 1 | −1 |  |  |  |  |  |  |
| COc1cccc2c1C(=O)c1c(O)c3c(c(O)c1C2=O)C[C@@](O)(C(=O)CO)C[C@@H]3O[C@H]1C[C@H](N)[C@H](O)[C@H](C)O1 [Adriamycin] |  |  |  | −1 | −1 | 1 | 1 | 1 | −1 |
| NCCc1ccc(O)c(O)c1 [Dopamine] |  |  |  | −1 | 1 | 1 |  | −1 | 1 |
| N=C(N)c1ccc(OCCCCCOc2ccc(C(=N)N)cc2)cc1 [Pentamidine] |  |  |  |  | 1 | 1 | −1 | −1 |  |
| CC(C)(C)NCC(O)c1cc(Cl)c(N)c(Cl)c1 (stereo not shown) [Clenbuterol] |  |  |  | 1 | 1 | 1 |  | 1 | 1 |
| Nc1cc(N2CCCCC2)nc(N)[n+]1[O-] [Minoxidil] |  |  |  | 1 | 1 | 1 | 1 | 1 | −1 |
| O=C1CN(/N=C/c2ccc(-c3ccc([N+](=O)[O-])cc3)o2)C(O)=N1 [Dantrolene] |  |  |  |  | 1 | 1 | 1 | −1 | −1 |
| NC[C@H](O)c1ccc(O)c(O)c1 [Norephinephrine] |  |  |  |  | 1 | 1 | −1 | 1 | 1 |
| ClC(Cl)(Cl)Cl [CCl4] |  |  |  | −1 | −1 | −1 | −1 | −1 | −1 |
| N.N.O=C([O-])C1(C(=O)[O-])CCC1.[Pt+2] [Carboplatin] |  |  |  | −1 | −1 | −1 | −1 | −1 | −1 |
| Fc1ccc([C@@H]2CCNC[C@H]2COc2ccc3c(c2)OCO3)cc1 [Paroxetine] |  |  |  |  | 1 | 1 |  | −1 |  |
| NNc1nncc2ccccc12 [Hydralazine] |  |  |  | 1 | 1 | 1 | −1 | 1 | −1 |
| CC(N)C(O)c1ccccc1 (stereo not shown) [Phenylpropanolamine] |  |  |  |  | 1 | 1 | −1 |  |  |
| CN(CCOc1ccc(CC2SC(=O)NC2=O)cc1)c1ccccn1 (stereo not shown) [Rosiglitazone] |  |  |  |  |  | 1 | 1 |  |  |
| COc1cccc2c1C(=O)c1c(O)c3c(c(O)c1C2=O)C[C@@](O)(C(=O)CO)C[C@@H]3O[C@H]1C[C@H](N)[C@@H](O)[C@H](C)O1 [Epirubicin] |  |  |  | −1 | 1 | 1 | 1 | −1 | −1 |
| CC(C)NCC(O)c1ccc(O)c(O)c1 (stereo not shown) [Isoproterenol] |  |  |  |  | 1 | 1 |  | 1 | 1 |
| CNC[C@H](O)c1ccc(O)c(O)c1 [Epinephrine] |  |  |  | −1 | 1 | 1 | −1 | 1 | 1 |
| Cn1nnc2c(C(N)=O)ncn2c1=O [Temozolomide] |  |  |  |  | −1 | −1 | −1 | −1 |  |
| NC(N)=Nc1nc(CSCCC(N)=NS(N)(=O)=O)cs1 [Famotidine] |  |  |  | −1 | 1 | 1 | −1 | −1 | −1 |
| Nc1nc2c(ncn2COCCO)c(=O)[nH]1 [Acyclovir] |  |  |  | −1 | −1 | −1 | −1 | −1 | −1 |
| O=P1(N(CCCl)CCCl)NCCCO1 (stereo not shown) [Cyclophosphamide] |  |  |  | −1 | −1 | 1 | 1 | −1 | −1 |
| N.N.[Cl][Pt][Cl] [Cisplatin] |  |  |  | −1 | 1 | 1 | −1 | 1 | −1 |
